{"source": "patent US20100041089A1", "about": "“IMPROVED METHOD FOR DETECTING CHEMICAL […]” (priority 2006, published 2010)", "system": "yeast genes (expressed mRNA)", "assay": "DNA chip measurement of expressed mRNA of yeast genes after culture with a toxic chemical substance", "type": "cell-based, Saccharomyces cerevisiae S288C", "conditions": "for level of expressed mRNA in the presence of chemical substance / level in the absence of chemical substance: cultured two hours with the chemical substance; for The level of expressed mRNA in the presence of chemical substance/The level of expressed mRNA in the absence of chemical substance: cultured two hours with substance", "procedure,_shortened": "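Yeast S288C, YPD 25° C; toxicant at log phase, 2 h, sublethal growth-inhibiting conc.; no-chemical control. Hot SDS/acetate RNA extraction, oligo-dT mRNA, Cy3/Cy5-dUTP RT. Whole-genome chip, 65° C >12 h. Readout: treated/control intensity ratio, ≥2 significant.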", "data": [{"substance": "Manganese ethylenebis(dithiocarbamate) [(8)]", "values": [{"measurement": "level of expressed mRNA in the presence of chemical substance / level in the absence of chemical substance", "setting": "yeast gene YDR128W", "result": 1.1}, {"measurement": "level of expressed mRNA in the presence of chemical substance / level in the absence of chemical substance", "setting": "yeast gene YDR133C", "result": 0.5}, {"measurement": "level of expressed mRNA in the presence of chemical substance / level in the absence of chemical substance", "setting": "yeast gene YDR250C", "result": 1.1}, {"measurement": "level of expressed mRNA in the presence of chemical substance / level in the absence of chemical substance", "setting": "yeast gene YDR278C", "result": 0.5}, {"measurement": "level of expressed mRNA in the presence of chemical substance / level in the absence of chemical substance", "setting": "yeast gene YDR281C", "result": 1.2}, {"measurement": "The level of expressed mRNA in the presence of chemical substance/The level of expressed mRNA in the absence of chemical substance", "setting": "yeast gene YDR330W", "result": 1.1}, {"measurement": "level of expressed mRNA in the presence of chemical substance / level in the absence of chemical substance", "setting": "yeast gene YDR366C", "result": 1.1}, {"measurement": "The level of expressed mRNA in the presence of chemical substance/The level of expressed mRNA in the absence of chemical substance", "setting": "yeast gene YDR411C", "result": 0.9}, {"measurement": "The level of expressed mRNA in the presence of chemical substance/The level of expressed mRNA in the absence of chemical substance", "setting": "yeast gene YDR511W", "result": 1.7}, {"measurement": "The level of expressed mRNA in the presence of chemical substance/The level of expressed mRNA in the absence of chemical substance", "setting": "yeast gene YDR545W", "result": 0.6}, {"measurement": "The level of expressed mRNA in the presence of chemical substance/The level of expressed mRNA in the absence of chemical substance", "setting": "yeast gene YEL001C", "result": 1.2}, {"measurement": "The level of expressed mRNA in the presence of chemical substance/The level of expressed mRNA in the absence of chemical substance", "setting": "yeast gene YER004W", "result": 1.1}, {"measurement": "The level of expressed mRNA in the presence of chemical substance/The level of expressed mRNA in the absence of chemical substance", "setting": "yeast gene YER035W", "result": 1.2}, {"measurement": "The level of expressed mRNA in the presence of chemical substance/The level of expressed mRNA in the absence of chemical substance", "setting": "yeast gene YER079W", "result": 1.4}, {"measurement": "The level of expressed mRNA in the presence of chemical substance/The level of expressed mRNA in the absence of chemical substance", "setting": "yeast gene YER106W", "result": 1.2}, {"measurement": "The level of expressed mRNA in the presence of chemical substance/The level of expressed mRNA in the absence of chemical substance", "setting": "yeast gene YER158C", "result": 0.9}, {"measurement": "The level of expressed mRNA in the presence of chemical substance/The level of expressed mRNA in the absence of chemical substance", "setting": "yeast gene YER163C", "result": 1.4}, {"measurement": "The level of expressed mRNA in the presence of chemical substance/The level of expressed mRNA in the absence of chemical substance", "setting": "yeast gene YER175C", "result": 1.1}, {"measurement": "The level of expressed mRNA in the presence of chemical substance/The level of expressed mRNA in the absence of chemical substance", "setting": "yeast gene YFL006W", "result": 1.0}, {"measurement": "The level of expressed mRNA in the presence of chemical substance/The level of expressed mRNA in the absence of chemical substance", "setting": "yeast gene YFL010C", "result": 1.0}, {"measurement": "The level of expressed mRNA in the presence of chemical substance/The level of expressed mRNA in the absence of chemical substance", "setting": "yeast gene YFL024C", "result": 0.9}, {"measurement": "The level of expressed mRNA in the presence of chemical substance/The level of expressed mRNA in the absence of chemical substance", "setting": "yeast gene YFL032W", "result": 0.4}, {"measurement": "level of expressed mRNA in the presence of chemical substance / level in the absence of chemical substance", "setting": "yeast gene YFR026C", "result": 1.3}, {"measurement": "The level of expressed mRNA in the presence of chemical substance/The level of expressed mRNA in the absence of chemical substance", "setting": "yeast gene YGL037C", "result": 1.2}, {"measurement": "The level of expressed mRNA in the presence of chemical substance/The level of expressed mRNA in the absence of chemical substance", "setting": "yeast gene YGL047W", "result": 1.1}, {"measurement": "The level of expressed mRNA in the presence of chemical substance/The level of expressed mRNA in the absence of chemical substance", "setting": "yeast gene YGL053W", "result": 1.2}, {"measurement": "level of expressed mRNA in the presence of chemical substance / level in the absence of chemical substance", "setting": "yeast gene YGL088W", "result": 0.5}, {"measurement": "The level of expressed mRNA in the presence of chemical substance/The level of expressed mRNA in the absence of chemical substance", "setting": "yeast gene YGL121C", "result": 3.0}, {"measurement": "The level of expressed mRNA in the presence of chemical substance/The level of expressed mRNA in the absence of chemical substance", "setting": "yeast gene YGL199C", "result": 0.7}, {"measurement": "level of expressed mRNA in the presence of chemical substance / level in the absence of chemical substance", "setting": "yeast gene YGR038W", "result": 0.7}, {"measurement": "The level of expressed mRNA in the presence of chemical substance/The level of expressed mRNA in the absence of chemical substance", "setting": "yeast gene YGR101W", "result": 0.8}, {"measurement": "The level of expressed mRNA in the presence of chemical substance/The level of expressed mRNA in the absence of chemical substance", "setting": "yeast gene YGR110W", "result": 1.5}, {"measurement": "The level of expressed mRNA in the presence of chemical substance/The level of expressed mRNA in the absence of chemical substance", "setting": "yeast gene YGR130C", "result": 0.9}, {"measurement": "level of expressed mRNA in the presence of chemical substance / level in the absence of chemical substance", "setting": "yeast gene YGR139W", "result": 0.6}, {"measurement": "The level of expressed mRNA in the presence of chemical substance/The level of expressed mRNA in the absence of chemical substance", "setting": "yeast gene YGR154C", "result": 1.7}, {"measurement": "The level of expressed mRNA in the presence of chemical substance/The level of expressed mRNA in the absence of chemical substance", "setting": "yeast gene YGR221C", "result": 1.1}, {"measurement": "level of expressed mRNA in the presence of chemical substance / level in the absence of chemical substance", "setting": "yeast gene YGR243W", "result": 1.3}, {"measurement": "level of expressed mRNA in the presence of chemical substance / level in the absence of chemical substance", "setting": "yeast gene YGR293C", "result": 1.3}, {"measurement": "level of expressed mRNA in the presence of chemical substance / level in the absence of chemical substance", "setting": "yeast gene YHL006C", "result": 1.1}, {"measurement": "level of expressed mRNA in the presence of chemical substance / level in the absence of chemical substance", "setting": "yeast gene YHR095W", "result": 1.0}, {"measurement": "level of expressed mRNA in the presence of chemical substance / level in the absence of chemical substance", "setting": "yeast gene YHR105W", "result": 1.0}, {"measurement": "The level of expressed mRNA in the presence of chemical substance/The level of expressed mRNA in the absence of chemical substance", "setting": "yeast gene YHR138C", "result": 1.4}, {"measurement": "level of expressed mRNA in the presence of chemical substance / level in the absence of chemical substance", "setting": "yeast gene YHR181W", "result": 0.9}, {"measurement": "The level of expressed mRNA in the presence of chemical substance/The level of expressed mRNA in the absence of chemical substance", "setting": "yeast gene YHR199C", "result": 1.0}, {"measurement": "The level of expressed mRNA in the presence of chemical substance/The level of expressed mRNA in the absence of chemical substance", "setting": "yeast gene YIL023C", "result": 0.7}, {"measurement": "The level of expressed mRNA in the presence of chemical substance/The level of expressed mRNA in the absence of chemical substance", "setting": "yeast gene YIL041W", "result": 0.9}, {"measurement": "The level of expressed mRNA in the presence of chemical substance/The level of expressed mRNA in the absence of chemical substance", "setting": "yeast gene YIL087C", "result": 1.1}, {"measurement": "level of expressed mRNA in the presence of chemical substance / level in the absence of chemical substance", "setting": "yeast gene YIL127C", "result": 1.2}, {"measurement": "level of expressed mRNA in the presence of chemical substance / level in the absence of chemical substance", "setting": "yeast gene YJL017W", "result": 1.0}, {"measurement": "level of expressed mRNA in the presence of chemical substance / level in the absence of chemical substance", "setting": "yeast gene YJL037W", "result": 1.2}, {"measurement": "The level of expressed mRNA in the presence of chemical substance/The level of expressed mRNA in the absence of chemical substance", "setting": "yeast gene YJL057C", "result": 1.5}, {"measurement": "The level of expressed mRNA in the presence of chemical substance/The level of expressed mRNA in the absence of chemical substance", "setting": "yeast gene YJL066C", "result": 0.8}, {"measurement": "The level of expressed mRNA in the presence of chemical substance/The level of expressed mRNA in the absence of chemical substance", "setting": "yeast gene YJL082W", "result": 0.9}]}]}
